Assay results reported in publication PMC6325219, “Preclinical Characterization of NVR 3-778, a First-in-Class Capsid Assembly Modulator against Hepatitis B Virus” (Antimicrobial Agents and Chemotherapy, 2018).
Several values for one entry are separate records, joined by “and”; a condition that tells them apart may be missing. Equal entries are not always repeated. Structures can show the parent of a compound that is named as a salt. Marks after values point to notes of the source that are not given here.

Assays:
[1] = test system: HBV T109M core variant; set-up: method as in doi:10.1016/S0168-8278(18)30439-2; settings: phase 1b; cited from earlier work
[2] = test system: HBV core protein variant T109M; set-up: method as in PMID 26598693; settings: previously published results; cited from earlier work
[3] = test system: HBV core protein variant I105T; set-up: method as in PMID 26598693; settings: previously published results; cited from earlier work
[4] = test system: HBV core protein variant T109S; set-up: method as in PMID 26598693; settings: previously published results; cited from earlier work
[5] = test system: HBV core protein variant T109I; set-up: method as in PMID 26598693; settings: previously published results; cited from earlier work
[6] = test system: HBV core protein variant I105L; set-up: method as in PMID 26598693; settings: previously published results; cited from earlier work
[7] = test system: HBV GT B (wild-type HBV); set-up: method as in PMID 26598693; settings: reference; previously published results; cited from earlier work
[8] = test system: HBV core protein variant Y118F; set-up: method as in PMID 26598693; settings: previously published results; cited from earlier work
[9] = test system: HBV core protein variant I105V; set-up: method as in PMID 26598693; settings: previously published results; cited from earlier work
[10] = test system: HBV rtN236T variant; type: cell-based, hepatitis B virus; settings: ratio of mean EC50 against variant over WT HBV, HepG2 cells
Description: (§1) Plasmids containing HBV DNA with rtN236T, rtA181V, rtA181V/N236T, and rtL180M/M204V/N236T were generated using the GT B WT or rtL180M/M204V DNA-containing plasmids and site-directed mutagenesis (Agilent Technologies). A panel of nine different HBV core variants (cW102G, cW102R, cI105V, cI105L, cI105T, cT109S, cT109M, cT109I, and cY118F) was generated, also using the GT B WT DNA-containing plasmid and site-directed mutagenesis. The full-length genome from all plasmids was sequenced to confirm that only the intended nucleotide change(s) was present. Finally, HBV sequences from genotypes A (GenBank accession number AF305422), C (GenBank accession number AB033550), D (GenBank accession number V01460), E (GenBank accession number AB274971), F (GenBank accession number AB036912), G (GenBank accession number AF160501), and H (GenBank accession number AB375159) were gene synthesized as 1.1 times the genome length together with part of the CMV promoter at the 5′ end. The gene-synthesized piece was validated by sequencing and subcloned into the pCMV-HBV plasmid using the restriction sites SalI and NdeI (Genewiz, USA).
(§2) HepG2 cells were seeded in 96-well plates at a density of 20,000 cells/well and allowed to attach overnight at 37°C in 5% CO2. Cells were cotransfected with the HBV plasmids (100 ng/well) and a Gaussia expression plasmid (10 ng/well) (Thermo Scientific) using the Lipofectamine LTX Plus transfection reagent (Life Technologies). Transfection mixtures were removed after overnight incubation, and cells were treated with serially diluted NVR 3-778 at a final dimethyl sulfoxide (DMSO) concentration of 0.5%. After 3 days of incubation with the compound, the supernatants were collected and secreted Gaussia luciferase was measured using a Gaussia Flash luciferase assay kit (Thermo Scientific). Cells were lysed with 0.33% NP-40 (Thermo Scientific), and the cytoplasmic fractions were treated with 2 units of Turbo DNase (Invitrogen) and 10 units of S7 nuclease (Roche) in CutSmart buffer (New England Biolabs) containing 25 µM CaCl2 (G-Biosciences) at 37°C for 60 min, followed by inactivation of the enzymes at 75°C for 15 min. Samples were diluted into lysis buffer (Affymetrix) containing 2.5 µg proteinase K (Affymetrix) at 50°C for 40 min. Intracellular encapsidated HBV DNA was denatured for 30 min at 25°C in 0.2 M NaOH (Sigma) and incubated with HBV DNA probes designed to hybridize to the minus-strand HBV DNA (Affymetrix). The denatured DNA was subsequently detected using a QuantiGene assay kit, according to the branched DNA (bDNA) assay recommended by the manufacturer (Affymetrix).
(§3) To determine percent inhibition, the mean background signal from wells containing only culture medium was subtracted from the signal for all other samples, and percent inhibition at each compound concentration was calculated by normalization to the signals for HepG2.2.15 cells treated with 0.5% DMSO. […] Both CalcuSyn and MacSynergy II (Ann Arbor, MI) software were used to evaluate the effect of compound combinations ([27]). After data analysis at the 95% confidence level, values of synergy or antagonism of <25 µM^2% were defined as insignificant, those between 25 and 50 µM^2% were defined as minor, those between 50 and 100 µM^2% were defined as moderate, and those of >100 µM^2% were defined as strong.

[11] = test system: HBV rtA181V/N236T variant; type: cell-based, hepatitis B virus; settings: ratio of mean EC50 against variant over WT HBV, HepG2 cells
Description: as §1, §2, §3

[12] = test system: HBV rtL180M/M204V variant; experiment: microbe, parasite or virus in culture; type: cell-based, hepatitis B virus; settings: for EC50 fold change, rtL180M/M204V: ratio of mean EC50 against variant over WT HBV, HepG2 cells
Description: as §1, §2, §3

[13] = test system: HBV rtA181V variant; experiment: microbe, parasite or virus in culture; type: cell-based, hepatitis B virus; settings: for EC50 fold change, rtA181V: ratio of mean EC50 against variant over WT HBV, HepG2 cells
Description: as §1, §2, §3

[14] = test system: HBV rtL180M/M204V/N236T variant; experiment: microbe, parasite or virus in culture; type: cell-based, hepatitis B virus; settings: ratio of mean EC50 against variant over WT HBV, HepG2 cells
Description: as §1, §2, §3

[15] = test system: HBV GT B (wild-type HBV); experiment: Transient-transfection antiviral study in HepG2 cells, GT B (wild-type HBV); type: cell-based, hepatitis B virus; settings: Hepatitis B virus, HepG2, read-out: WT EC50
Protocol: (§5) Cells were cotransfected with the HBV plasmids (100 ng/well) and a Gaussia expression plasmid (10 ng/well) (Thermo Scientific) using the Lipofectamine LTX Plus transfection reagent (Life Technologies). Transfection mixtures were removed after overnight incubation, and cells were treated with serially diluted NVR 3-778 at a final dimethyl sulfoxide (DMSO) concentration of 0.5%. After 3 days of incubation with the compound, the supernatants were collected and secreted Gaussia luciferase was measured using a Gaussia Flash luciferase assay kit (Thermo Scientific). […] Samples were diluted into lysis buffer (Affymetrix) containing 2.5 µg proteinase K (Affymetrix) at 50°C for 40 min. Intracellular encapsidated HBV DNA was denatured for 30 min at 25°C in 0.2 M NaOH (Sigma) and incubated with HBV DNA probes designed to hybridize to the minus-strand HBV DNA (Affymetrix). The denatured DNA was subsequently detected using a QuantiGene assay kit, according to the branched DNA (bDNA) assay recommended by the manufacturer (Affymetrix).

[16] = test system: HBV; experiment: Combination study of NVR 3-778 with nucleos(t)ide analogs in HepG2.2.15 cells (MacSynergy II, CalcuSyn); type: cell-based, hepatitis B virus (GT D); settings: in combination with NVR 3-778; for Antagonism / Synergy: HepG2.2.15 cells, 6 days, MacSynergy II, 95% confidence; for CalcuSyn-predicted effect: based on overall CI; for MacSynergy-predicted effect: volumes <25 µM^2% defined as insignificant
Protocol: The effect of the compound combinations on cell viability was evaluated by measuring the intracellular ATP levels of HepG2.2.15 cells.
(§4) HepG2.2.15 cells were seeded in 96-well plates at a density of 40,000 cells/well and incubated with serially diluted compounds at a final DMSO concentration of 0.5%. In combination studies, cells were treated with compounds either alone or in combination after combining the compounds in a checkerboard format. In studies examining the effect of human serum, serially diluted NVR 3-778 was added into cell culture medium containing 0% to 40% human serum (BioreclamationIVT). Cells were incubated with the compounds for 3 days, after which the medium was removed, fresh medium containing the compounds was added to the cells, and the cells were incubated for another 3 days prior to harvesting of the supernatants or cells for antiviral assays. To quantify intracellular encapsidated rcDNA or encapsidated pgRNA, cells were first solubilized using lysis buffer containing 1% NP-40 and 10 mM CaCl2. The cytoplasmic fraction was then treated with S7 nuclease (6 units) to remove nonencapsidated nucleic acids, after which the S7 nuclease was inactivated by the addition of EDTA (0.5 M). To quantify extracellular HBV DNA or HBV RNA, supernatants from HepG2.2.15 cells were treated with Turbo DNase at 37°C for 60 min, followed by inactivation of DNase at 75°C for 15 min. The levels of HBV DNA were determined by a bDNA assay as described above (Affymetrix). Supernatants or cell lysates containing HBV RNA were treated with proteinase K (2.5 µg) at 50°C for 40 min, transferred to a capture plate containing HBV RNA probe sets, and hybridized overnight at 55°C. Captured HBV RNA was measured by the addition of a chemiluminescent substrate using a QuantiGene assay (Affymetrix). To determine the cytotoxicity effect of the compounds on proliferating cells, HepG2.2.15 cells were seeded in 96-well plates at a density of 10,000 cells/well and incubated with serially diluted compounds at a final DMSO concentration of 0.5% for 3 days, after which the medium was removed, fresh medium containing the compounds was added to the cells, and the cells were incubated for another 3 days. At day 6, the CellTiter-Glo reagent was added to the cells and viability was determined according to the manufacturer’s protocol (Promega). Luminescence signals were measured at 0.2 s using a Victor X4 multimode plate reader (PerkinElmer).
as §3

[17] = test system: nucleoside-resistant HBV variants; experiment: Transient-transfection antiviral study, panel of nucleoside-resistant HBV variants (summary statements); type: cell-based, hepatitis B virus; settings: versus WT HBV
Protocol: as §5

[18] = test system: HBV; experiment: Antiviral studies using HepG2.2.15 cells (HBV DNA and HBV RNA readouts); type: cell-based, hepatitis B virus (GT D); settings: HepG2.2.15 cells
Protocol: as §4, with “In” for “HepG2.2.15 cells were seeded in 96-well plates at a density of 40,000 cells/well and incubated with serially diluted compounds at a final DMSO concentration of 0.5%. In”, “To quantify extracellular HBV DNA or HBV RNA, supernatants from HepG2.2.15 cells were treated with Turbo DNase at 37°C for 60 min, followed by inactivation of DNase at 75°C for 15 min.” left out, “To determine the cytotoxicity effect of the compounds on proliferating cells, HepG2.2.15 cells were seeded in 96-well plates at a density of 10,000 cells/well and incubated with serially diluted compounds at a final DMSO concentration of 0.5% for 3 days, after which the medium was removed, fresh medium containing the compounds was added to the cells, and the cells were incubated for another 3 days.” left out

SMILES | EC50 FC, T109M [2] | EC50 FC, I105T [3] | EC50 FC, T109S [4] | EC50 FC, T109I [5] | EC50 FC, I105L [6] | EC50 FC, wild type [7] | EC50 FC, Y118F [8] | EC50 FC, I105V [9] | EC50 fold change, rtN236T [10] | EC50 fold change, rtA181V/N236T [11] | EC50 fold change, rtL180M/M204V [12] | EC50 fold change, rtA181V [13] | EC50 fold change, rtL180M/M204V/N236T [14] | EC50 [15] | Antagonism [16] | Synergy [16] | CalcuSyn-predicted effect [16] | MacSynergy-predicted effect [16] | also measured
O=C(NCc1cnc(C(F)(F)F)s1)c1ccc2c(c1)NC(=O)c1ccccc1S2(=O)=O [ABI-H0731] | – | – | – | – | – | – | – | – | – | – | – | – | – | – | – | – | – | – | Antiviral response in a patient with a preexisting T109M core variant [1]: reduced antiviral response
COC(=O)C1=C(C)NC(c2ncc(F)cc2F)=N[C@H]1c1ccc(F)cc1Cl [Bay 41-4109] | 3.7 fold | 1.5 fold | 0.40 fold | 21 fold | 0.44 fold | 1 fold | 8.2 fold | 1.3 fold | – | – | – | – | – | – | – | – | – | – | –
C=C1[C@H](CO)[C@@H](O)C[C@@H]1n1cnc2c(=O)[nH]c(N)nc21 [ETV, entecavir] | – | – | – | – | – | – | – | – | 0.67 ± 0.22^d fold | 1.8 ± 0.6^d fold | 31 fold and 31 ± 16^a fold | 2.2 ± 0.5^a fold | 14 fold and 14 ± 4^a fold | 1.4 ± 0.4 nM | −16.5 μM^2% | 1.0 μM^2% | Slight to moderate synergy | Additive | –
COC(=O)C1=C(CN2CCOCC2)NC(c2nccs2)=N[C@@H]1c1ccc(F)cc1Br [NVR-010-001-E2] | 2.8 fold | 1.2 fold | 0.43 fold | 9.2 fold | 0.49 fold | 1 fold | 3.7 fold | 1.3 fold | – | – | – | – | – | – | – | – | – | – | –
CC(C)OC(=O)OCOP(=O)(CO[C@H](C)Cn1cnc2c(N)ncnc21)OCOC(=O)OC(C)C [TDF, Tenofovir disoproxil fumarate] | – | – | – | – | – | – | – | – | 2.2 ± 1.0^b fold | 2.8 ± 1.4^b fold | 1.1 ± 0.3^d fold | 1.4 ± 0.05^d fold | 2.9 ± 1.5^b fold | 32 ± 15 nM | – | – | – | – | EC50 ([12]; Hepatitis B virus, HepG2, read-out: EC50 (mean), rtL180M/M204V variant): 34 nM; EC50 ([13]; Hepatitis B virus, HepG2, read-out: EC50 (mean), rtA181V variant): 43 nM; Reduction of antiviral activity against the variants that contained rtN236T [17]: about 3 fold
C[C@H](Cn1cnc2c(N)ncnc21)OCP(=O)(O)O [TFV, tenofovir] | – | – | – | – | – | – | – | – | – | – | – | – | – | – | −7.3 μM^2% | 18.5 μM^2% | Slight to moderate synergy | Additive | Effect on HBV DNA production [18]: inhibited HBV DNA production; Effect on intracellular encapsidated HBV RNA and secreted HBV RNA ([18]; dose-dependent): increased the levels
